Results as given in patent US8450494B2, “Disubstituted benzamide derivatives as glucokinase (GK) activators” (Cadila Healthcare Limited, priority 2010, dated 2013).

Target: T1, glucokinase (GK) enzyme (Homo sapiens, UniProt P35557)
T1 sequence (P35557 1-465): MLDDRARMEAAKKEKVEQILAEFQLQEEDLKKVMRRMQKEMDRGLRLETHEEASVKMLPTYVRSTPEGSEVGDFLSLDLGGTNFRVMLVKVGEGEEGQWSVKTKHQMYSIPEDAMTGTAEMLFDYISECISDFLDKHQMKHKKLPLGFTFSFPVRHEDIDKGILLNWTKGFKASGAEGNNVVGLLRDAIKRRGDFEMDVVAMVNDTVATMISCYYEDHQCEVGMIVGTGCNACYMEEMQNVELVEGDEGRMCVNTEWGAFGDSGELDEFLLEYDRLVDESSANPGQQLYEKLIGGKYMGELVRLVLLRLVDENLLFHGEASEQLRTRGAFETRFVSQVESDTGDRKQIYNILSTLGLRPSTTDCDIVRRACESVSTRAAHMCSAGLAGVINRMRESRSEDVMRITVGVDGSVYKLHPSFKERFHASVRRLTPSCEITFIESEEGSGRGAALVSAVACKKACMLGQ
Assay: In-vitro glucokinase (GK) enzyme activation assay (coupled with glucose-6-phosphate dehydrogenase, absorbance at 340)
Type: biochemical
Conditions: glucose 2.5 mM, ATP 1 mM; for EC50: GK activation; for activity at 0.1 µM / activity at 1 µM / activity at 5 µM / activity at 10 µM: read-out: % of GK activity wrt DMSO
Protocol: The compound of the invention was incubated with glucokinase (GK) enzyme (0.2 units) for 10 minutes in assay buffer at 26° C. After incubation, addition of glucose-6-phosphate dehydrogenase (2.5 units), ATP (1 mM) and glucose (2.5 mM). Absorbance is measured at 340 nm for 15 minutes with 10 second interval using UV transparent plate in kinetic mode on Spectramax-190 at 30° C.

Compound	EC50 [nM]	activity at 0.1 µM (compound 0.1 uM) [%]	activity at 1 µM (compound 1 uM) [%]	activity at 5 µM (compound 5 uM) [%]	activity at 10 µM (compound 10 uM) [%]	% of GK activity wrt DMSO (compound 0.1 uM) [%]	% of GK activity wrt DMSO (compound 1 uM) [%]	% of GK activity wrt DMSO (compound 5 uM) [%]	% of GK activity wrt DMSO (compound 10 uM) [%]
COC[C@H](C)Oc1cc(Oc2ccc(-c3nnc(C)o3)cc2)cc(C(=O)Nc2nc(C)cs2)c1 [Example 2.20, (S)-3-((1-Methoxypropan-2-yl)oxy)-5-(4-(5-methyl-1,3,4-oxadiazol-2-yl)phenoxy)-N-(4-methylthiazol-2-yl)benzamide]		251	405	436	408				
COC(C)CCOc1cc(Oc2ccc(-c3nnc(C)o3)cc2)cc(C(=O)Nc2nccs2)c1 (stereo not shown) [Example 1.7, 3-(3-Methoxybutoxy)-5-(4-(5-methyl-1,3,4-oxadiazol-2-yl)phenoxy)-N-(thiazol-2-yl)benzamide]		164	228	245	236				
COCC(C)Oc1cc(Oc2ccc(-c3nnc(C4CC4)o3)cc2)cc(C(=O)Nc2nccs2)c1 (stereo not shown) [Example 2.28, 3-(4-(5-Cyclopropyl-1,3,4-oxadiazol-2-yl)phenoxy)-5-((1-methoxypropan-2-yl)oxy)-N-(thiazol-2-yl)benzamide]		223	450	493	488				
C=CCCOc1cc(Oc2ccc(-c3nnc(C)o3)cc2)cc(C(=O)Nc2ncc(C)s2)c1 [Example 2.13, 3-(But-3-en-1-yloxy)-5-(4-(5-methyl-1,3,4-oxadiazol-2-yl)phenoxy)-N-(5-methylthiazol-2-yl)benzamide]		112	180	233	215				
COCC(C)Oc1cc(Oc2ccc(-c3nnc(C)o3)cc2)cc(C(=O)Nc2nc(CC(=O)O)cs2)c1 (stereo not shown) [Example 2.8]						239.5	323.6	336.3	328.9

Continued, values first:

EC50 [nM]	activity at 0.1 µM (compound 0.1 uM) [%]	activity at 1 µM (compound 1 uM) [%]	activity at 5 µM (compound 5 uM) [%]	activity at 10 µM (compound 10 uM) [%]	% of GK activity wrt DMSO (compound 0.1 uM) [%]	% of GK activity wrt DMSO (compound 1 uM) [%]	% of GK activity wrt DMSO (compound 5 uM) [%]	% of GK activity wrt DMSO (compound 10 uM) [%]	Compound
88	234	292	305	293					Cc1nnc(-c2ccc(Oc3cc(OCC4CC4)cc(C(=O)Nc4nccs4)c3)cc2)o1 [Example 1.5, 3-(Cyclopropylmethoxy)-5-(4-(5-methyl-1,3,4-oxadiazol-2-yl)phenoxy)-N-(thiazol-2-yl)benzamide]
	116	184	241	215					C=CCOc1cc(Oc2ccc(-c3nnc(C)o3)cc2)cc(C(=O)Nc2ncc(C)s2)c1 [Example 2.14, 3-(Allyloxy)-5-(4-(5-methyl-1,3,4-oxadiazol-2-yl)phenoxy)-N-(5-methylthiazol-2-yl)benzamide]
21	276	309	316	309					COCC(C)Oc1cc(Oc2ccc(-c3nnc(C)o3)cc2)cc(C(=O)Nc2nccs2)c1 (stereo not shown) [Example 1.1, 3-(1-Methoxypropan-2-yloxy)-5-(4-(5-methyl-1,3,4-oxadiazol-2-yl)phenoxy)-N-(thiazol-2-yl)benzamide]
					252.3	433.6	518.5	470.8	COCC(C)Oc1cc(Oc2ccc(-c3nnc(C4CCCC4)o3)cc2)cc(C(=O)Nc2nccs2)c1 (stereo not shown) [Example 2.31]
81	167	229	242	244					C=CCCOc1cc(Oc2ccc(-c3nnc(C)o3)cc2)cc(C(=O)Nc2nccs2)c1 [Example 1.2, 3-(But-3-enyloxy)-5-(4-(5-methyl-1,3,4-oxadiazol-2-yl)phenoxy)-N-(thiazol-2-yl)benzamide]
	210	271	316	302					COCC(C)Oc1cc(Oc2ccc(-c3nnc(C)o3)cc2)cc(C(=O)Nc2ncc(Br)s2)c1 (stereo not shown) [Example 2.36, N-(5-Bromothiazol-2-yl)-3-((1-methoxypropan-2-yl)oxy)-5-(4-(5-methyl-1,3,4-oxadiazol-2-yl)phenoxy)benzamide]
	126	223	306	333					COC[C@H](C)Oc1cc(Oc2ccc(-c3nnc(C)o3)cc2)cc(C(=O)Nc2ncc(C#N)s2)c1 [Example 2.42, (S)—N-(5-Cyanothiazol-2-yl)-3-((1-methoxypropan-2-yl)oxy)-5-(4-(5-methyl-1,3,4-oxadiazol-2-yl)phenoxy)benzamide]
	235	258	191	243					COC[C@H](C)Oc1cc(Oc2ccc(-c3nnc(C)o3)cc2)cc(C(=O)Nc2ncc(C)s2)c1 [Example 2.11, (S)-3-((1-Methoxypropan-2-yl)oxy)-5-(4-(5-methyl-1,3,4-oxadiazol-2-yl)phenoxy)-N-(5-methylthiazol-2-yl)benzamide]
